Source: ChEMBL document CHEMBL1129684, “New steroidal diazo ketones as potential photoaffinity labeling reagents for the mineralocorticoid receptor: synthesis and biological activities” (J Med Chem, 1996)

Assays:
[1] = target: T1, Mineralocorticoid receptor (Homo sapiens, UniProt P08235); test: Affinity for recombinant Mineralocorticoid receptor; conditions: read-out: Kd app
T1 sequence (P08235 whole entry): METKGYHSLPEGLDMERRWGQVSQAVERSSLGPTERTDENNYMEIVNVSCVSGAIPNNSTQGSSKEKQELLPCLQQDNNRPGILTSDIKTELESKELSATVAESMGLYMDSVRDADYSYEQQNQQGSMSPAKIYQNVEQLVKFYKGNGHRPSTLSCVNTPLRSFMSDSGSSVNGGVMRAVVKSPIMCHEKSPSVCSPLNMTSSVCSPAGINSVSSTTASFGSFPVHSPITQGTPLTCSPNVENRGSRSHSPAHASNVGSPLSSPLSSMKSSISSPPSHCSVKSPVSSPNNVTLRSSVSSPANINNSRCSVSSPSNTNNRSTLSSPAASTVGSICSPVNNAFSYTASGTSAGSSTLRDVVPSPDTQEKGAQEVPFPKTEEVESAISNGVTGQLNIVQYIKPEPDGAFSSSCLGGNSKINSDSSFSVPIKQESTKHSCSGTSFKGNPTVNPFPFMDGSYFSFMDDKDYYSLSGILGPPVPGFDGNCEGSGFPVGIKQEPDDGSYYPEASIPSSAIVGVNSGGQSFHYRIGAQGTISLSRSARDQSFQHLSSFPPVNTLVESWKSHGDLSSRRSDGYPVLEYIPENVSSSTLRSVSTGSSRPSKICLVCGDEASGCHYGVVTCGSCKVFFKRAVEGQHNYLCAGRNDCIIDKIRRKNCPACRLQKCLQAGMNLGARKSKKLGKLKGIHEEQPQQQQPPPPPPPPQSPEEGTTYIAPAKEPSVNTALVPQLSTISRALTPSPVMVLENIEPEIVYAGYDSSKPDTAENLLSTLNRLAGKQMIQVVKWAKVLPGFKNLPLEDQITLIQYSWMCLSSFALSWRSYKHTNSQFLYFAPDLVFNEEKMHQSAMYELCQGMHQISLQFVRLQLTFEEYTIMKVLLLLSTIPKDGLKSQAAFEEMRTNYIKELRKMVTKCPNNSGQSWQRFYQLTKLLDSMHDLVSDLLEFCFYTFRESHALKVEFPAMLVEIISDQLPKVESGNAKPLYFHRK

[2] = target: T1, Mineralocorticoid receptor; test: Inhibition of 10e-9 M aldosterone activity in CV-1 cells expressing mineralocorticoid receptor; assay type: functional, cell-based
[3] = target: T2, Mineralocorticoid receptor (Homo sapiens) (UniProt P08235); conditions: CV-1
T2 sequence (whole entry): T1 sequence (P08235 whole entry)
Description: Transcriptional activation activity in CV-1 cells expressing mineralocorticoid receptor

Kd [1] | IC50 [2] | ED50 [3] | Structure (SMILES)
20 nM | 900 nM | – | C[C@@H](O)C1CC[C@H]2[C@@H]3CCC4=CC(=O)CCC4(C)[C@H]3CCC12C(=O)C=[N+]=[N-] (stereo partly specified)
20 nM | 700 nM | – | CC(=O)C1CC[C@H]2[C@@H]3CCC4=CC(=O)CCC4(C)[C@H]3CCC12C(=O)[CH-][N+]#N (stereo partly specified)
0.74 nM | – | 6 nM | CC12CCC(=O)C=C1CCC1C2CCC2(C)C(C(=O)C=[N+]=[N-])CCC12 (stereo unspecified)
